Data on 43 compounds can be found in patent US20070219767A1, “ATOMIC COORDINATES OF ALBUMIN DRUG COMPLEXES AND METHOD OF USE OF PHARMACEUTICAL DEVELOPMENT” (priority 2003, published 2007).

“Also recorded” adds a separate entry of the source.

The target in the first assay is T1, human serum albumin (Homo sapiens, UniProt P02768).
T1 sequence (P02768 25-609): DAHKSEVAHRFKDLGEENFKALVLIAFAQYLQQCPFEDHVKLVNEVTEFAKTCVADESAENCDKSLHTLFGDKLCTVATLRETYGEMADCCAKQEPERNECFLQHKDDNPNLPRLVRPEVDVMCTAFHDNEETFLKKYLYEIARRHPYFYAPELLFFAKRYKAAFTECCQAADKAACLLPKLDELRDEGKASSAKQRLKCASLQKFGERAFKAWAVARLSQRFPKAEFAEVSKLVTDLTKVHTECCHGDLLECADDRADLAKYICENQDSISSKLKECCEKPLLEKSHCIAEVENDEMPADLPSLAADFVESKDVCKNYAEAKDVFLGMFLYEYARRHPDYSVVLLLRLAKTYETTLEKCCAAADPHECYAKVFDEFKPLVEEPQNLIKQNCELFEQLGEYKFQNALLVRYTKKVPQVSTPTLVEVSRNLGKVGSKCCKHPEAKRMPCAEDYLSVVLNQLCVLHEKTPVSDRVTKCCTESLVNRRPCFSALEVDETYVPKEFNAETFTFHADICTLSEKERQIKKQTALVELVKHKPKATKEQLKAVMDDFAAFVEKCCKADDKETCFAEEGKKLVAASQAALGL
Test: not given
The conditions noted are these: prior knowledge on non-drugs such as gases; cited from earlier work.
Regarding `FC(F)(F)C(Cl)Br` (stereo not shown) [halothane], the “HSA site with binding affinity, previously known” value is “IIA-IIB”.

The target in a further assay is T1, human serum albumin. The assay can be described thus: X-ray crystallography of human serum albumin/drug complexes: binding location. More on the design: Domain I (1 through 192); Domain II (193 through 395);Domain III (396 THROUGH 585).
Conditions: not given
The source says: This information was derived from crystallization of the protein/ligand to create a protein/ligand complex and determining the atomic structure of the resulting complex by x-ray diffraction. The ligand may be any ligand capable of binding to the human serum albumin protein, and is preferably a ligand that binds to one of the binding sites described herein.
One method of obtaining information regarding the structural; characteristics of the albumin binding regions is through protein crystallization processes.
By applying standard crystallization protocols to the above described crystallizable compositions, crystals of the human serum albumin complex may be obtained. This, an even further aspect of this invention relates to a method of preparing human serum albumin complex-containing crystals. The method comprises the steps of • (a) obtaining a crystallizable composition comprising a human serum albumin protein, divalent cations, and a ligand capable of binding to the protein, and • (b) subjecting the composition of step (a) to conditions which promote crystallization.
The “active site binding pockets” or “active site” of human serum albumin refers to one of several areas determined experimentally on the human serum albumin protein surface where substrates bind.
`Cc1noc(NS(=O)(=O)c2ccc(N)cc2)c1C` [Sulfisoxazole]: the “Binding site of the Drug-Albumin Complex (site heading the list of contacting residues)” value (from here on “Binding site of the Drug-Albumin Complex”) is given as “Site IB, L115, V116, R117, P118, M123, Y138, I142, Y161, L182,”.

Still in this assay, the particulars now being: Table I, Phase I; subdomain of HSA where the drug is found in the crystal complex.
As for `CC(NC(C)(C)C)C(=O)c1cccc(Cl)c1` (stereo not shown) [Bupropion], the “Albumin Binding Location” value is listed as “IIA, IIIA”. As to `CCCNC(=O)NS(=O)(=O)c1ccc(Cl)cc1` [Chlorpropamide], the “Albumin Binding Location” value is recorded as “IIA, IIIA”.

Regarding `CCCCC(=O)O[C@H]1CC[C@H]2[C@@H]3CCc4cc(O)ccc4[C@H]3CC[C@]12C` [Estradiol Valerate], the “Albumin Binding Location” value is “IIA”.

With `CC[C@H](C)C(=O)O[C@H]1C[C@@H](C)C=C2C=C[C@H](C)[C@H](CC[C@@H]3C[C@@H](O)CC(=O)O3)[C@H]21` [Lovastatin], the “Albumin Binding Location” value is reported as “IIA”.

With `CN1C(CCl)Nc2cc(Cl)c(S(N)(=O)=O)cc2S1(=O)=O` (stereo not shown) [Methayclothiazide], the “Albumin Binding Location” value is “IIA-IIB”. On the same count and under the same terms, to `CCc1nn(CCCN2CCN(c3cccc(Cl)c3)CC2)c(=O)n1CCOc1ccccc1` [Nefazodone] belongs “IIIA”; to `CC1(C)S[C@@H]2[C@H](NC(=O)COc3ccccc3)C(=O)N2[C@H]1C(=O)O` [Penicillin V], “IIA”; to `O=C1NC(=O)C(c2ccccc2)(c2ccccc2)N1` [Phenytoin], “IIA”. Same read-out and setting: the value for `C[C@]12C=CC(=O)C=C1CC[C@@H]1[C@@H]2C(=O)C[C@@]2(C)[C@H]1CC[C@]2(O)C(=O)CO` [Prednisone] was “IIA”; that for `CN(C/C=C/C#CC(C)(C)C)Cc1cccc2ccccc12` [Terbinafine] was “IIIA”; that for `CC1=C(/C=C/C(C)=C/C=C/C(C)=C/C(=O)O)C(C)(C)CCC1` [Tertinoin] was “IIIA”.

The assay is the same for the next values; noted with them: Table II, Phase II; refined coordinates; listed residues within 5 Å of bound ligand.
Consider `COc1ccc2cc(CC(=O)O)ccc2c1` [6-MNA], for which the “Binding site of the Drug-Albumin Complex” value was “Site IB, R114, L115, R117, M123, L135, Y138, L139, I142, H146,; also recorded: Site IIA-IIBR209, A210, A213, W214, D324, L327, G328, L331,; also recorded: Site IIIA, L387, I388, N391, C392, F403, L407, R410, Y411, K414,”. As to `CC[C@@]1(O)C(=O)OCc2c1cc1n(c2=O)Cc2cc3c([N+](=O)[O-])cccc3nc2-1` [9 Nitro-Camptothecin], the “Binding site of the Drug-Albumin Complex” value is “Site IB, L115, V116, R117, Y138, I142, H146, F149, L154, F157,”. In the case of `CC(=O)Oc1ccccc1C(=O)O` [Aspirin], the “Binding site of the Drug-Albumin Complex” value is “Site IIIB, F509, I513, R521, K524, K525, A528, M548, F551, A552,”.

Consider `O=C(O)CCNC(=O)c1ccc(/N=N/c2ccc(O)c(C(=O)O)c2)cc1` [Balsalazide], for which the “Binding site of the Drug-Albumin Complex” value is “Site IIA-IIIB, S401, K402, N405, A406, L407, V409, R410, K413,”.

`CC[C@@]1(O)C(=O)OCc2c1cc1n(c2=O)Cc2cc3ccccc3nc2-1` [Camptothecin]: the “Binding site of the Drug-Albumin Complex” value is on record as “Site IB, L115, V116, R117, M123, Y138, I142, H146, F149, L154,”. Turning to `CCOc1nc2cccc(C(=O)OC(C)OC(=O)OC3CCCCC3)c2n1Cc1ccc(-c2ccccc2-c2nn[nH]n2)cc1` (stereo not shown) [Candesartan Cilexitil], the “Binding site of the Drug-Albumin Complex” value is given as “Site II-III, K195, L198, K199, S202, L203, F206, G207, A210, F211,; also recorded: Site IIIA, P384, L387, I388, N391, C392, F395, F403, L407, Y411,; also recorded: Site IIIA-IIIB, L398, Y401, K402, N405, A406, V409, R410, L529,”. The same measure, in the same setting: the value for `COc1ccccc1OCCNCC(O)COc1cccc2[nH]c3ccccc3c12` (stereo not shown) [Carvedilol] was “Site IIIA, P384, L387, I388, N391, F403, L407, R410, Y411, K414,”; that for `CCc1cccc2c3c([nH]c12)C(CC)(CC(=O)O)OCC3` (stereo not shown) [Etodolac] was “Site IB, L115, Y138, E141, I142, R145, H146, Y161, L182, L185,; also recorded: Site IIIA, P384, L387, I388, N391, F403, L407, R410, Y411, K414,”; that for `CC(C(=O)O)c1ccc(-c2ccccc2)c(F)c1` (stereo not shown) [Flurbiprofen] was “Site IIIA, L387, I388, N391, C392, F395, F403, L407, R410, Y411,”. As to `Cc1ccc(C)c(OCCCC(C)(C)C(=O)O)c1` [Gemfrirozil], the “Binding site of the Drug-Albumin Complex” value was “Site IB, L115, V116, R117, F134, L135, Y138, L139, I142, R145,; also recorded: Site IIIA, L387, R410, Y411, K414, V415, V418, L423, V426, S427,”. `COc1ccc(Cl)cc1C(=O)NCCc1ccc(S(=O)(=O)NC(=O)NC2CCCCC2)cc1` [Glyburide]: the “Binding site of the Drug-Albumin Complex” value is recorded as “Site IB, L115, V116, R117, P118, M123, A126, F134, K137, Y138,”.

For `CC(=O)[C@]1(O)Cc2c(O)c3c(c(O)c2[C@@H](O[C@H]2C[C@H](N)[C@H](O)[C@H](C)O2)C1)C(=O)c1ccccc1C3=O` [Idarubicin], the “Binding site of the Drug-Albumin Complex” value was “Site IB, F036, F037, L115, V116, R117, P118, V122, M123, A126,”. For the compound `O=C(c1ccccc1)c1ccc2n1CCC2C(=O)O` (stereo not shown) [Ketorolac], the “Binding site of the Drug-Albumin Complex” value is “Site IB, L115, R117, Y138, I142, H146, F157, Y161, L182, D183,; also recorded: Site IIIA, L387, I388, N391, C392, F403, L407, R410, Y411, K414,”.

For `Cc1ccc(Cl)c(Nc2ccccc2C(=O)O)c1Cl` [Meclofenamic Acid], the “Binding site of the Drug-Albumin Complex” value is on record as “Site IIIA, P384, L387, I388, N391, C392, F403, L407, R410, Y411,”. Consider `Cc1cccc(Nc2ccccc2C(=O)O)c1C` [Mefenamic Acid], for which the “Binding site of the Drug-Albumin Complex” value was “Site IIIA, E383, P384, L387, N391, C392, F403, L407, R410, Y411,”.

On to `O=C(O)CCc1nc(-c2ccccc2)c(-c2ccccc2)o1` [Oxaprozin], for which the “Binding site of the Drug-Albumin Complex” value is on record as “Site IIIA, P384, L387, I388, N391, C392, F403, L407, R410, Y411,”.

`CC1(C)S[C@@H]2[C@H](NC(=O)Cc3ccccc3)C(=O)N2[C@H]1C(=O)O` [Penecillin G]: the “Binding site of the Drug-Albumin Complex” value is “Site IIA, Y150, K195, K199, F211, W214, A215, R218, L219, R222,”. Consider `CN1C(C(=O)Nc2ccccn2)=C(O)c2ccccc2S1(=O)=O` [Piroxicam], for which the “Binding site of the Drug-Albumin Complex” value was “Site IIA, K195, Q196, L198, K199, F211, W214, A215, R218, L219,”. In the case of `CC(CN1c2ccccc2Sc2ccccc21)N(C)C` (stereo not shown) [Promethazine], the “Binding site of the Drug-Albumin Complex” value is reported as “Site IIB, D308, F309, N318, E321, A322, V325, F326, N329”. For the compound `CCC(=O)O[C@](Cc1ccccc1)(c1ccccc1)[C@H](C)CN(C)C` [Propoxyphene], the “Binding site of the Drug-Albumin Complex” value is reported as “Site IIIB, F502, F507, F509, A528, E531, L532, H535, V547, D550,”.

For `O=C(c1ccccc1)c1ccc2n1CC[C@H]2C(=O)O` [R-Ketorolac], the “Binding site of the Drug-Albumin Complex” value was “Site IB, R117, Y138, I142, H146, F149, L154, F157, Y161, L182,”. As for `Cc1nc2n(c(=O)c1CCN1CCC(c3noc4cc(F)ccc34)CC1)CCCC2` [Risperidone], the “Binding site of the Drug-Albumin Complex” value is “Site IIIA, L387, I388, N391, C392, F403, L407, R410, Y411, K414,”. For the compound `CCc1cccc2c3c([nH]c12)[C@](CC)(CC(=O)O)OCC3` [S-Etodolac], the “Binding site of the Drug-Albumin Complex” value was “Site IIIA, P384, L387, I388, N391, F403, L407, R410, Y411, K414,”. Regarding `O=C(c1ccccc1)c1ccc2n1CC[C@@H]2C(=O)O` [S-Ketorolac], the “Binding site of the Drug-Albumin Complex” value is “Site IIIB, F507, F509, I513, L516, R521, K524, K525, A528, L532,”. As for `O=C(Oc1ccccc1C(=O)O)c1ccccc1O` [Salsalate], the “Binding site of the Drug-Albumin Complex” value was “Site IIIB, F509, I513, R521, K524, K525, A528, M548, F551, A552,”. For the compound `CC1(C)S[C@@H]2[C@H](NC(=O)C(c3ccccc3)S(=O)(=O)O)C(=O)N2[C@H]1C(=O)O` (stereo partly shown) [Sulbenicillin], the “Binding site of the Drug-Albumin Complex” value is listed as “Site IIA, Y150, K195, K199, W214, R218, L219, R222, L238, H242,”. Consider `CCCc1nc2c(C)cc(-c3nc4ccccc4n3C)cc2n1Cc1ccc(-c2ccccc2C(=O)O)cc1` [Telmisartan], for which the “Binding site of the Drug-Albumin Complex” value is listed as “Site IB, L115, V116, R117, P118, M123, F134, K137, Y138, E141,”. With `COc1cc([C@@H]2c3cc4c(cc3[C@@H](O[C@@H]3O[C@@H]5CO[C@@H](c6cccs6)O[C@H]5[C@H](O)[C@H]3O)[C@H]3COC(=O)[C@H]23)OCO4)cc(OC)c1O` [Teniposide], the “Binding site of the Drug-Albumin Complex” value is given as “Site IB, L115, V116, R117, P118, A126, F134, K137, Y138, E141,”. Take `COc1cc(C(=O)NS(=O)(=O)c2ccccc2C)ccc1Cc1cn(C)c2ccc(NC(=O)OC3CCCC3)cc12` [Zafirlukast]: the “Binding site of the Drug-Albumin Complex” value is “Site IIA, Y150, E153, K195, L198, K199, S202, F211, W214, A215,”. For the compound Hemin, the “Binding site of the Drug-Albumin Complex” value is recorded as “Site IB, R114, L115, V116, R117, P118, M123, F134, L135, Y138,”.
